# Patent US20100081679A1, “DIAMINOPYRIMIDINES AS FUNGICIDES” (Bayer CropScience AG, priority 2007, published 2010)
# Marks after values point to notes of the source that are not given here.
# Assay: logP determination via retention times, calibrated with unbranched alkan-2-ones
# Type: physicochemical
# Conditions: HPLC on reversed-phase C 18, EEC Directive 79/831 Annex V.A8; method *: 40° C., 0.1% aqueous formic acid and acetonitrile, linear gradient 10% to 95% acetonitrile
row,Structure (SMILES),logP
1,CCN(C(C)=O)c1ccc(Nc2ncc(Br)c(NCC3CC3)n2)cc1 [compound 480],1.83*
2,CN(C=O)c1ccc(Nc2ncc(Cl)c(NCC3CC3)n2)cc1 [compound 545],1.56*
3,CC(=O)Nc1cc(Nc2ncc(Br)c(NCC3CC3)n2)ccc1C [compound 468],1.51*
4,CC(=O)N1CCc2cc(Nc3ncc(Cl)c(NCC4CC4)n3)ccc21 [compound 518],1.59*
5,CCOC(=O)Nc1ccc(Nc2ncc(Cl)c(NCC3CC3)n2)cc1 [compound 543],1.8*
6,CN(C=O)c1ccc(Nc2ncc(Br)c(NCC3CC3)n2)cc1 [compound 490],1.63*
7,CCC(=O)Nc1cccc(Nc2ncc(Br)c(NCC3CC3)n2)c1 [compound 483],1.66*

# Same assay, conditions: HPLC on reversed-phase C 18, method **: 43° C.; 0.1% aqueous phosphoric acid and acetonitrile; linear gradient 10% to 95% acetonitrile
row,Structure (SMILES),logP
1,CN(CC1CC1)c1nc(Nc2ccc(N3CCCC3=O)cc2)ncc1Cl [compound 966],2.09**

# Same assay, conditions: HPLC on reversed-phase C18, method **: 43° C.; mobile phase 0.1% aqueous phosphoric acid and acetonitrile; linear gradient 10% to 95% acetonitrile
row,Structure (SMILES),logP
1,CC(C)(C)NS(=O)(=O)Cc1ccc(Nc2ncc(Cl)c(NC3CC3)n2)cc1 [compound 326],1.99**

# Same assay, conditions: HPLC on reversed-phase C18, method *: 40° C., 0.1% aqueous formic acid and acetonitrile, linear gradient 10% to 95% acetonitrile
row,Structure (SMILES),logP
1,O=C(c1ccc(Nc2ncc(C(F)(F)F)c(NC3CC3)n2)cc1)N1CCCCC1 [compound 725],2.86*
2,FC(F)(F)Oc1ccc(Nc2ncc(Cl)c(NCC3CC3)n2)cc1 [compound 688],2.95*
3,FC(F)c1cnc(Nc2ccccc2)nc1NCC1CC1 [compound 773],1.68*
4,COc1ccc(Nc2ncc(Cl)c(NCC3CC3)n2)cc1OC [compound 686],1.63*
5,NS(=O)(=O)c1cc(Nc2ncc(Cl)c(NCC3CC3)n2)ccc1Cl [compound 693],1.83*
6,CCCCc1ccccc1Nc1ncc(Cl)c(NC2CC2)n1 [compound 911],2.3*
7,CCOc1ccccc1Nc1ncc(Cl)c(NC2CC2)n1 [compound 876],2.13*
8,Clc1cnc(Nc2cccc(C3CCNCC3)c2)nc1NC1CC1 [compound 727],0.88*

# Continued, values first:
row,logP,Structure (SMILES)
1,2.16*,N#CCC(=O)c1ccc(Nc2ncc(Br)c(NC3CC3)n2)cc1 [compound 759]
2,2.07*,Cc1cccc(Nc2ncc(Br)c(NC3CC3)n2)c1 [compound 730]
3,1.35*,CC(=O)Nc1cc(Nc2ncc(Br)c(NC3CC3)n2)ccc1C [compound 113]
4,2.01*,Cc1ccc(Nc2ncc(Cl)c(NC3CC3)n2)cc1C [compound 939]
5,1.73*,C=CCNC(=O)c1ccc(Nc2ncc(Br)c(NC3CC3)n2)cc1 [compound 755]

# Same assay, conditions: HPLC on reversed-phase C18, method *: 40° C.; mobile phase 0.1% aqueous formic acid and acetonitrile; linear gradient 10% to 95% acetonitrile
row,Structure (SMILES),logP
1,Oc1ccc(Nc2ncc(Cl)c(NC3CC3)n2)c(F)c1 [compound 294],1.26*
2,Clc1ccccc1C1(Nc2nc(Nc3ccccc3)ncc2Cl)CC1 [compound 318],3.66*
3,FC(F)Oc1ccc(Nc2ncc(Cl)c(NC3CC3)n2)cc1 [compound 288],2.11*
4,COC(=O)N(C)c1ccc(Nc2ncc(Cl)c(NC3CC3)n2)cc1 [compound 339],1.63*

# Results, then the molecule that gave them:
row,logP,Structure (SMILES)
1,2.11*,CC(C)OC(=O)Nc1cccc(Nc2ncc(Br)c(NC3CC3)n2)c1 [compound 331]
2,2.06*,CCOc1cccc(Nc2ncc(Cl)c(NC3CC3)n2)c1 [compound 293]
3,2.82*,COC(c1cccc(Nc2ncc(Br)c(NC3CC3)n2)c1)C(F)(F)F (stereo not shown) [compound 333]
4,2.16*,O=S(=O)(c1cccc(Nc2ncc(Br)c(NC3CC3)n2)c1)N1CCCCC1 [compound 354]

# Same assay, conditions: HPLC on reversed-phase C18 column (EEC Directive 79/831 Annex V.A8); method *: 40° C.; 0.1% aqueous formic acid and acetonitrile; linear gradient 10% to 95% acetonitrile
row,Structure (SMILES),logP
1,CC(=O)c1cc(Nc2ncc(Cl)c(NC3CC3)n2)ccc1Cl [compound 249],2.43*
2,O=C(Nc1ccc(Nc2ncc(C(F)(F)F)c(NCC3CC3)n2)cc1)C(F)(F)F [compound 203],2.84*

# Same assay, conditions: HPLC reversed-phase C 18, EEC Directive 79/831 Annex V.A8; method **: 43° C., 0.1% aqueous phosphoric acid and acetonitrile, linear gradient 10% to 95% acetonitrile
row,Structure (SMILES),logP
1,CSc1cccc(Nc2nc(C)c(Cl)c(NC3CC3)n2)c1 [compound 837],2.23**
2,Brc1cnc(Nc2cccc(I)c2)nc1NC1CC1 [compound 860],3.34**

# Same assay, conditions: HPLC reversed-phase C 18, EEC Directive 79/831 Annex V.A8; method *: 40° C., 0.1% aqueous formic acid and acetonitrile, linear gradient 10% to 95% acetonitrile
row,Structure (SMILES),logP
1,CC1COC(=O)N1c1cccc(Nc2ncc(F)c(NC3CC3)n2)c1 (stereo not shown) [compound 802],1.18*
2,CCc1cccc(Nc2ncc(Br)c(NC3CC3)n2)c1 [compound 775],2.44*
3,N#CCc1cccc(Nc2ncc(Br)c(NC3CC3)n2)c1 [compound 794],1.75*
4,COC(C)c1cccc(Nc2ncc(Cl)c(NC3CC3)n2)c1 (stereo not shown) [compound 806],1.96*
5,COCC(=O)Nc1cccc(Nc2ncc(Cl)c(NC3CC3)n2)c1 [compound 793],1.33*

# Same assay, conditions: method **: HPLC reversed-phase C 18, 43° C., 0.1% aqueous phosphoric acid and acetonitrile, linear gradient 10% to 95% acetonitrile
row,Structure (SMILES),logP
1,O=S(=O)(c1cccc(Nc2ncc(Cl)c(NC3CC3)n2)c1)N1CCOCC1 [Example 19],2.13**
2,O=C1OCCN1c1ccc(Nc2ncc(C(F)(F)F)c(NC3CC3)n2)cc1 [compound 367],2.04**
3,CN(C)S(=O)(=O)c1cccc(Nc2ncc(Cl)c(NCC3CC3)n2)c1 [compound 49],2.18**
4,Cc1ccc(Nc2ncc(Cl)c(NC3CC3)n2)cc1S(=O)(=O)N(C)C [Example 47],2.14**
5,NS(=O)(=O)c1ccc(Nc2ncc(Cl)c(NCC3CC3)n2)cc1 [compound 8],1.52**

# Same assay, conditions: method **: HPLC, reversed-phase C 18, 43° C., mobile phase 0.1% aqueous phosphoric acid and acetonitrile, linear gradient from 10% to 95% acetonitrile
row,Structure (SMILES),logP
1,CN(C)C(=O)c1ccc(Nc2ncc(Cl)c(NC3CC3(C)C)n2)cc1 (stereo not shown) [compound 1030],1.86**
2,COCCc1cccc(Nc2ncc(C(F)(F)F)c(NC3CC3)n2)c1 [compound 1039],2.88**

# Same assay, conditions: method *: HPLC reversed-phase C18, 40° C., 0.1% aqueous formic acid and acetonitrile, linear gradient 10% to 95% acetonitrile
row,Structure (SMILES),logP
1,CC(C)(C)NC(=O)c1cccc(Nc2ncc(Br)c(NCC3CC3)n2)c1 [compound 461],2.16*
2,CC(=O)c1ccc(Nc2ncc(Cl)c(NC3CC3)n2)cc1 [compound 44],1.99*
3,O=C1OCCN1c1ccc(Nc2ncc(C(F)(F)F)c(NC3CC3)n2)cc1 [compound 367],1.94*;
4,FC(F)Sc1ccc(Nc2ncc(Cl)c(NC3CC3)n2)cc1 [compound 94],2.77*
5,C=CCS(=O)(=O)c1ccc(Nc2ncc(Cl)c(NC3CC3)n2)cc1 [Example 61],2.18*
6,O=C(NCc1ccc(Nc2ncc(Cl)c(NC3CC3)n2)cc1)OCc1ccccc1 [Example 95],2.2*

# Continued, values first:
row,logP,Structure (SMILES)
1,2.7*,Clc1cccc(Nc2ncc(Cl)c(NC3CC3)n2)c1 [compound 1]
2,3.17*,CC(C)COc1cccc(Nc2ncc(Cl)c(NC3CC3)n2)c1 [compound 444]
3,1.73*,COC(=O)Nc1cccc(Nc2ncc(Br)c(NCC3CC3)n2)c1 [compound 458]

# Same assay, conditions: method *: HPLC reversed-phase C 18, temperature 40° C.; mobile phase 0.1% aqueous formic acid and acetonitrile; linear gradient 10% to 95% acetonitrile
row,Structure (SMILES),logP
1,CC(C)(C)C(=O)Cc1ccc(Nc2ncc(C(F)(F)F)c(NC3CC3)n2)cc1 [compound 655],3.33*
2,CN(C)S(=O)(=O)c1ccc(Nc2ncc(C(F)(F)F)c(NC3CC3)n2)cc1 [compound 645],2.84*

# Second part, the molecule after the results:
row,logP,Structure (SMILES)
1,1.49*,O=C(NC1CC1)c1cccc(Nc2ncc(Br)c(NC3CC3)n2)c1 [compound 628]
2,2.06*,COC(=O)Nc1cccc(Nc2ncc(C#N)c(NC3CC3)n2)c1 [compound 612]
3,2.36*,CN(C)S(=O)(=O)c1cccc(Nc2ncc(C#N)c(NC3CC3)n2)c1 [compound 617]
4,3.35*,Fc1cc(F)cc(Nc2ncc(Br)c(NC3CC3)n2)c1 [compound 602]

# Same assay, conditions: method *: HPLC, reversed-phase C 18, 40° C., mobile phase 0.1% aqueous formic acid and acetonitrile, linear gradient from 10% to 95% acetonitrile
row,Structure (SMILES),logP
1,CN(C)C(=O)c1ccc(Nc2ncc(Cl)c(NC3CC3(C)C)n2)cc1 (stereo not shown) [compound 1030],1.86*;
2,CN(c1nc(Nc2cccc(N3CCOC3=O)c2)ncc1Cl)C1CC1 [compound 1055],2.13*
3,Clc1cnc(Nc2cccc(C3CCCC3)c2)nc1NC1CC1 [compound 1066],3.18*
4,CCC(CC)c1ccc(Nc2ncc(Cl)c(NC3CC3)n2)cc1 [compound 1033],3.41*

# Same assay, conditions: pH 2.3; read-out: logP (pH2.3)
row,Structure (SMILES),chromatographic logP
1,O=c1[nH]c(Nc2ccccc2)ncc1Cl [2-Anilino-5-chloropyrimidin-4(3H)-one],1.56
2,"Clc1ncc(Cl)c(NC2CC2)n1 [2,5-Dichloro-N-cyclopropylpyrimidine-4-amine]",1.79
